From patent US7511144B2, “Reverse hydroxamic acid derivatives” (Kaken Pharmaceutical Co., Ltd., priority 2001, dated 2009)
pIC50: −log10 of the molar value.

Target: T1, TACE (Homo sapiens, UniProt P78536)
T1 construct: made in house; host or cells: mammalian cells or insect cells
Test: TACE inhibition experiment (in vitro)
Format: biochemical

T1 sequence (P78536 215-824): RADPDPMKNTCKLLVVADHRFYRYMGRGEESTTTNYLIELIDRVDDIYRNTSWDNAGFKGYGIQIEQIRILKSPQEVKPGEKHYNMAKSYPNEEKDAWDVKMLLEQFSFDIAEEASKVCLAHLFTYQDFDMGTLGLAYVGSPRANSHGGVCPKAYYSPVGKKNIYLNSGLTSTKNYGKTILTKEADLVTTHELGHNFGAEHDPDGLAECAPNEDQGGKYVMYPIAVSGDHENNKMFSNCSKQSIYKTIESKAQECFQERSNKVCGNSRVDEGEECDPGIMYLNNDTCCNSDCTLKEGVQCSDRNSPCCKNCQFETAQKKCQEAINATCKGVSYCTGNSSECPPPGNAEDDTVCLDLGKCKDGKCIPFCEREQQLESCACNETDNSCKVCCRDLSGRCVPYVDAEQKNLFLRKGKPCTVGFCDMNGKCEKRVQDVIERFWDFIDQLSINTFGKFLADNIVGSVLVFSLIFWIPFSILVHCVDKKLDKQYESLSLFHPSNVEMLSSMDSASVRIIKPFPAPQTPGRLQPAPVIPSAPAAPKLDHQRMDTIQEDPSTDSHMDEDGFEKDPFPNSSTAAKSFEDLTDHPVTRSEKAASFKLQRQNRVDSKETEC

pIC50 | SMILES
8.09 | CCC(CC)C(=O)N1CCCC(=CC(CS(=O)(=O)c2ccc(OCc3cc(C)nc4ccccc34)cc2)N(O)C=O)CC1 (stereo not drawn) [Example I-139]
8.09 | Cc1cc(COc2ccc(S(=O)(=O)CC(C=C3CCCN(CC(C)C)CC3)N(O)C=O)cc2)c2ccccc2n1 (stereo not drawn) [Example I-140]
8.48 | CCC(CC)C(=O)N1CC/C(=C\C(CS(=O)(=O)c2ccc(OCc3cc(C)nc4ccccc34)cc2)N(O)C=O)C(C)(C)C1 (stereo not drawn) [Example I-141]
8.14 | Cc1cc(COc2ccc(S(=O)(=O)CC(CCC3(C)CCOCC3)N(O)C=O)cc2)c2ccccc2n1 (stereo not drawn) [Example I-144]
8.03 | Cc1cc(COc2ccc(S(=O)(=O)CC(CCC3=CCCC(O)C3)N(O)C=O)cc2)c2ccccc2n1 (stereo not drawn) [Example I-146]
7.89 | Cc1cc(COc2ccc(S(=O)(=O)CC(CC3=CCN(C(=O)OC(C)(C)C)CC3(C)C)N(O)C=O)cc2)c2ccccc2n1 (stereo not drawn) [Example I-152]
7.48 | CCN1CCCC(C(CS(=O)(=O)c2ccc(OCc3cc(C)nc4ccccc34)cc2)N(O)C=O)C1 (stereo not drawn) [Example I-153]
7.51 | Cc1cc(COc2ccc(S(=O)(=O)CC(C3CCCN(CC(C)C)C3)N(O)C=O)cc2)c2ccccc2n1 (stereo not drawn) [Example I-154]
7.48 | CCN1CCC(C(CS(=O)(=O)c2ccc(OCc3cc(C)nc4ccccc34)cc2)N(O)C=O)CC1 (stereo not drawn) [Example I-156]
7.89 | Cc1cc(COc2ccc(S(=O)(=O)CC(CC3CCCN(C(=O)OC(C)(C)C)C3)N(O)C=O)cc2)c2ccccc2n1 (stereo not drawn) [Example I-157]
7.59 | CCN1CCCC(CC(CS(=O)(=O)c2ccc(OCc3cc(C)nc4ccccc34)cc2)N(O)C=O)C1 (stereo not drawn) [Example I-158]
7.30 | CCC(CC)CN1CCCC(C(CS(=O)(=O)c2ccc(OCc3cc(C)nc4ccccc34)cc2)N(O)C=O)C1 (stereo not drawn) [Example I-160]
7.36 | Cc1cc(COc2ccc(S(=O)(=O)CC(N(O)C=O)C3(C)CCN(C(=O)OC(C)(C)C)CC3)cc2)c2ccccc2n1 (stereo not drawn) [Example I-161]

The remaining lines, values behind:

SMILES | pIC50
Cc1cc(COc2ccc(S(=O)(=O)CC(CCc3ccccc3C)N(O)C=O)cc2)c2ccccc2n1 (stereo not drawn) [Example I-40] | 6.57
O=CN(O)C(CC1CCC2(CC1)OCCO2)CS(=O)(=O)c1ccc(OCc2ccc3ccccc3n2)cc1 (stereo not drawn) [Example I-87] | 5.24
O=CN(O)C(CC1CCC(=NO)CC1)CS(=O)(=O)c1ccc(OCc2ccc3ccccc3n2)cc1 (stereo not drawn) [Example I-88] | 6.12
O=CN(O)C(CC1CCC(=O)CC1)CS(=O)(=O)c1ccc(OCc2ccc3ccccc3n2)cc1 (stereo not drawn) [Example I-89] | 6.09
Cc1cc(C)cc(COc2ccc(S(=O)(=O)CC(CC3CCC4(CC3)OCCO4)N(O)C=O)cc2)c1 (stereo not drawn) [Example I-90] | 5.68
COCc1cc(COc2ccc(S(=O)(=O)CC(CC3CCC4(CC3)OCCO4)N(O)C=O)cc2)cc(C)n1 (stereo not drawn) [Example I-121] | 6.44
COCc1cc(COc2ccc(S(=O)(=O)CC(CC3CCC(=O)CC3)N(O)C=O)cc2)cc(C)n1 (stereo not drawn) [Example I-123] | 6.54
Cc1cccc(C(CS(=O)(=O)c2ccc(OCc3cc(C)nc4ccccc34)cc2)N(O)C=O)n1 (stereo not drawn) [Example I-135] | 8.40
Cc1cc(COc2ccc(S(=O)(=O)CC(C=C3CCCN(S(C)(=O)=O)CC3)N(O)C=O)cc2)c2ccccc2n1 (stereo not drawn) [Example I-138] | 8.55
Cc1cc(COc2ccc(S(=O)(=O)CC(/C=C3\CCN(CC(C)C)CC3(C)C)N(O)C=O)cc2)c2ccccc2n1 (stereo not drawn) [Example I-142] | 7.74
Cc1cc(COc2ccc(S(=O)(=O)CC(/C=C/C3(C)CCOCC3)N(O)C=O)cc2)c2ccccc2n1 (stereo not drawn) [Example I-143] | 8.48
COc1ccc(CCC(CS(=O)(=O)c2ccc(OCc3cc(C)nc4ccccc34)cc2)N(O)C=O)c(C)c1C (stereo not drawn) [Example I-145] | 6.68
Cc1ccc2nc(C)cc(COc3ccc(S(=O)(=O)CC(c4ccc(C)nc4)N(O)C=O)cc3)c2c1 (stereo not drawn) [Example I-147] | 8.37
Cc1ccc2nc(C)cc(COc3ccc(S(=O)(=O)CC([C@@H]4CSC(=O)N4C)N(O)C=O)cc3)c2c1 (stereo partly drawn) [Example I-148] | 7.89
